Key:
Assay type in all cases: in vivo
Male rats of Vistar line = assay: Appetite Control Test; conditions: dose 10 mg/kg intraperitoneally 60 minutes before the test; 16 h food deprivation; FIG. 10
Method: Male rats of Vistar line weighing 230-360 g were housed in standard home cages with water and food available with the exception of short periods of food deprivation (16 hs) just before the Appetite test. The Appetite test was carried out in individual cages with overhead cover made of wire in the niches of which a portion of food granules was inserted. Mass of the granules was examined every 30 minutes for 3 h. On the basis of these measurements food consumption was estimated and stated in grams of food per kilogram of body mass. Placebo and compound 1.5(1) (dose 10 mg/kg) were injected intraperitoneally 60 minutes before the test. Each experimental group of animals consisted of 10 rats. Compound was dissolved in sterilized water. The injection volume was 10 ml/kg. Intact animals which were not undergone food deprivation, and animals after food deprivation, but injected with sterilized water, were used as control. Intact animals which were not undergone food deprivation and injected with sterilized water, were used as control. The experiment was carried out also using compounds 1.1(9) and 1.8(7).

male mice of BALB/c line [1] = assay: Tail suspension test; conditions: after 4 days administration in doses of 0.1 mg/kg; 3 minutes; FIG. 13
Method: Antidepressant action of compounds of the general formula 1 in tail suspension test. Experiments were carried out in aged male mice of BALB/c line weighing 20-24 grams. In the test mice were suspended by tail with scotch tape on holder over horizontal surface at a height of about 40 cm, and for 3 minutes the total duration of complete immobility episodes which is considered to be a measure of depressively-like state was registered. Automated computerized detection of motion with video system and Any-maze program were used in test.

male mice of BALB/c line [2] = assay: Porsolt's Forced Swim Test; conditions: after 4 days administration in doses of 1 mg/kg; last 5 minutes of 15 min test; FIG. 12
Method: Antidepressant action of antagonists of the general formula 1 in Porsolt's Forced Swim Test. The test apparatus represented a plastic vessel filled with water up to height of 18 cm at 20-22° C. Experiments were carried out in aged male mice of BALB/c line weighing 20-24 grams. An animal was placed in water and for 15 minutes the duration of immobile hanging in water—so named behavioural despaire which is considered to be a measure of depressively-like state, was registered. The last 5 minutes of the test were used for estimation. Automated computerized detection of motion with video system and Any-maze program were used in test.

Mice of SHK line = assay: Prepulse inhibition of the startle response in mice (Apomorphine model); conditions: 1 mg/kg, 60 minutes before the test; FIG. 11
Method: Antipsychotic activity of compounds of the general formula 1 in “Prepulse inhibition of the startle response in mice” test. Mice of SHK line weighing about 24-30 g were used in the test. Experiments were carried out during light period of animal's diurnal. Apomorphine hydrochloride and Haloperidol were received from Sigma Chemicals Company, (USA). Apomorphine hydrochloride was dissolved in 0.1% solution of ascorbic acid prepared with sterilized water; it was introduced subcutaneously 15 minutes before the test. Haloperidol was dissolved in sterilized water using emulsifier Twin 80, it was introduced intraperitoneally 60 minutes before the test. Compound 1.5(1) was dissolved in sterilized water, it was introduced subcutaneously 60 minutes before the test. Injection volume was 10 ml/kg. Solution of ascorbic acid prepared with sterilized water and Twin 80 were injected to control group of animals.
The test instrument consisted of a chamber made of transparent plexiglass (manufacturer—Columbia Instruments Company, USA) and placed on a platform; the latter was lodged inside the sound insulating chamber. High frequency sound column transmitting acoustic stimulus was located 2 cm away from the platform. […] Level of background noise made up 65 dB. Each animal received 4 stimuli of single testing (pulse) stimulus of 50 ms duration and 105 dB or prepulsory stimulus (pre-pulse) of 20 ms duration and 85 dB, after which in 30 ms pulse stimulus of 50 ms duration and 105 dB followed. Time interval between repeated pulse or prepulse in combination with pulse stimuli made up 10 s. Inhibition of the startle in reply to prepulse-plus-pulse stimulus was calculated in percentage towards amplitude of startle in response to isolated pulse stimulus. Administration of Apomorphine, which is used in experiments on animals for modelling of psychoto-like conditions, caused reduction of prepulse inhibition of startle, which reflected the lowering of CNS ability to filter sensory stimulus. The experiment was also carried out using compounds 1.1(9) and 1.8(7).

male mice of BALB/c line [3] = assay: Passive Avoidance of mice in the Shuttle Chamber, memory disturbed by MK-801; conditions: MK-801 0.1 mg/kg, intraperitoneally 30 min before training; FIG. 4-6
male mice of BALB/c line [4] = assay: Mice Behavior in the Elevated Plus Maze; conditions: 5 minutes, FIG. 7-9
Method: Anxiolytic (tranquilizing) action of compounds of the general formula 1 in “Mice Behavior in the Elevated Plus Maze” test. Compounds 1.1(9), 1.5 (1) and 1.8(7) were employed in the experiments. Arm length was 30 cm, width—5 cm, wall hight—15 cm. Two opposite arms were closed from both sides and end surfaces with transparent plexiglass; two others—lighted and opened. A mouse was placed in the maze center, and over a period of 5 minutes the number of opened and closed arms entries and duration of opened and closed arm entries were registered. […] Being in normal state animals avoid opened arms (index of preference makes 0.2-0.3). Compounds with anxiolytic activity (tranquilizing activity) run this value up to 0.5-0.6 and more, and also decrease the number of defecations without changing overall physical activity (general number of arm entries).

male mice of BALB/c line [5] = assay: Passive Avoidance of mice in the Shuttle Chamber, memory disturbed by Scopolamine; conditions: Scopolamine 0.3 mg/kg, intraperitoneally 30 minutes before training; FIG. 1-3
Method: Nootropic action (enhancement of memory disturbed by Scopolamine) of compounds of the general formula 1 in the test “Passive Avoidance of mice in the Shuttle Chamber”. A shuttle chamber (Ugo Basile, Italy) consisted of two sections was used. […] The sections were connected through a hole which could be overlapped by vertical door. The floor of the dark section was made of transverse metal bars on which DC current impulses could be fed. Experiments were carried out in aged male mice of BALB/c line weighing 20-25 grams.
On the first day of the experiment 30 minutes before training mice were injected intraperitoneally with physiological solution, Scopolamine (0.3 mg/kg), or Scopolamine in combination with compound 1.5(1). Each group consisted of 8 animals at least. The animals were placed in the light section, and latent period of the first entry into the dark chamber was registered. Then the vertical door was closed and the animal was punished by 0.6 mA DC current for 3 seconds. After that the animal was taken back to its home cage. In 22-24 hours the same animal was placed again in the light section of the shuttle chamber and latent period of its first entry into the dark section, the total time of its stay in the light section and the number of entries into dark section were registered. Each monitoring lasted for 5 minutes. […]

SMILES | Appetite (food consumption) after food deprivation (Male rats of Vistar line) | Antidepressant action: total duration of complete immobility (male mice of BALB/c line [1]) | Antidepressant action: duration of immobile hanging in water (behavioural despaire) (male mice of BALB/c line [2]) | Antipsychotic activity: prepulse inhibition of startle disturbed by Apomorphine (Mice of SHK line) | Nootropic action (enhancement of memory disturbed by MK-801) (male mice of BALB/c line [3]) | Anxiolytic (tranquilizing) action (male mice of BALB/c line [4]) | Nootropic action (enhancement of memory disturbed by Scopolamine) (male mice of BALB/c line [5])
CNc1ccc(N2CCNCC2)cc1S(=O)(=O)c1cccc(F)c1 [1.1(9), methyl-[4-piperazin-1-yl-6-(3-fluorophenylsulfonyl)phenyl]-amine] | capable to prevent appetite rising in rats | diminish the duration of complete immobility of mice | diminish the given parameter | prevented disturbance of prepulse inhibition of startle caused by Apomorphine | produce nootropic action | anxiolytic (tranquilizing) activity comparable to the activity of Buspirone and Lorazepam | produce nootropic action more effectively
CNc1c(S(=O)(=O)c2ccccc2)cnc2c(N3CCNCC3)cccc12 [1.5 (1), methyl-(8-piperazin-1-yl-3-phenylsulfonylquinolin-4-yl)-amine] | capable to prevent appetite rising in rats | diminish the duration of complete immobility of mice | diminish the given parameter | prevented disturbance of prepulse inhibition of startle caused by Apomorphine | produce nootropic action | anxiolytic (tranquilizing) activity comparable to the activity of Buspirone and Lorazepam | produce nootropic action more effectively
O=C(CCCN1CCC(O)(c2ccc(Cl)cc2)CC1)c1ccc(F)cc1 [Haloperidol, reference compound] |  |  |  | prevented disturbance of prepulse inhibition of startle caused by Apomorphine |  |  | 

From patent publication US8829002B2, “Substituted methyl amines, serotonin 5-HT6 receptor antagonists, methods for production and use thereof” (priority 2010, dated 2014)
